According to patent publication US4845233A, “Imidazolin-2-ones” (IPRX, Inc., priority 1987, dated 1989):

Tests used:
[1] = in vitro transdermal penetration of indomethacin from petrolatum ointment through shed snake skin, vertical diffusion cell; format: in vitro ADME, Elaphe obsoleta (black rat snake); conditions: for Relative Penetration: 5% enhancer in ointment, indomethacin, slope relative to Azone = 100%
Method: Ointments were prepared by mixing 1% indomethacin, 5% dermal penetration enhancer and 94% petrolatum at 55°-60° C. to give a homogeneous dispersion of indomethacin. In the cases where the enhancers are liquid the indomethacin and the enhancer were first mixed well and then followed by the incorporation of the petrolatum. The mixture was melted at 55°-60° C. and stirred until a homogeneous ointment was obtained. For low melting enhancers, the enhancer and the indomethacin were melted together and mixed in a water-bath followed by the incorporation of petrolatum. For high melting enhancers, it was necessary to mix the components in an agate mortar.
A whole shed snake skin from the molt of adult Elaphe obsoleta (black rat snake) was obtained from the Animal Care Unit of the University of Kansas. Only the dorsal side of the shed snake skin was used for in vitro penetration studies. The head and tail sections of the snake skin was removed and the remainder of the skin was cut randomly into sections of approximately 2 inches by 2 inches. Each piece of snake skin was hydrated overnight by first soaking the skin in water (about 5 to 10 min) until it could be stretched and then it was placed on a plastic pan which held some water. The pan was floated on a water-bath of 32° C. overnight.
Approximately 30 mg of ointment as prepared as described in Example 23 was smeared evenly on an area of the 2"×2" snake skin. The ointment was smeared into an essentially circular area approximately 1.77 cm^2 and having a diameter of approximately 15 mm. The snake skin was then mounted on top of the receptor cell of a verticle diffusion cell assembly in which a small magnetic bar was inserted and filled with an isotonic buffer. A rubber o-ring was placed on top of the skin followed by the placement of the donor cell. The two cells were clamped together and transferred to a water-bath (32° C.) which had several magnetic stirrers placed underneath to stir the contents of the diffusion cells. Samples from the cells were withdrawn periodically by gravity by inputing fresh isotonic buffer into the cells inlets. The first five drops were discarded and the following four drops were collected for analysis. These nine drops of sample solution were approximately equivalent to about 0.20 ml.
The samples were analyzed for the concentration of indomethacin using either a Spectroflow 783 programmable absorbance detector or a Perkin-Elmer ISS-100 HPLC apparatus with a Perkin-Elmer LC9 UV spectrophotometric detector and a Perkin-Elmer ISS-100 automatic sampler with the detection wavelength set at 260 nm. A reverse phase column, RP-8 Spheri-5, 4.6×100 mm and a guard tube OD-GU, purchased from Brownlee Labs, were used in conjunction with the HPLC system. The flow rate was 1.0 ml/min and the solvent system was a mixture of acetonitrile (50%) and a 0.01M phosphate buffer (pH 3.0) (50%).
The concentration in each sample was interpreted from a standard curve which was obtained by plotting the peak areas obtained from HPL chromatograms versus four different standard solutions of indomethacin. The standard curves were linear over a range of concentrations from 2.5 to 10 ug/ml. The receptor cell volume was calibrated by weighing the amount of water in the cell. The first sample needs no concentration correction. However, the concentration in the subsequent samples can be corrected by the following equation [formula] where xi is a member of microgram of indomethacin in the i^th sample. Also, the volume withdrawn for each sampling is about 0.20 ml. Yi is the concentration correction for i-1 sample.
The foregoing results were obtained by using 5% of the transdermal penetration enhancer in the ointment. […] Thus, Table III primarily reflects the transdermal penetration data of […] from ointments of 94% petrolatum and 5% enhancer. In Run No. 14, Azone was selected as the standard for comparison since it is claimed to be an excellent enhancer although it is too toxic. […]

[2] = intraperitoneal; cited from earlier work
[3] = in vitro transdermal penetration of indomethacin from petrolatum ointment through shed snake skin, vertical diffusion cell; format: in vitro ADME, Elaphe obsoleta (black rat snake); conditions: * 10% enhancer in ointment, slope relative to Azone = 100%
[4] = tested on: Swiss white mice; experiment: Chronic Toxicity Study, subcutaneous daily for 14 days; format: in vivo; conditions: 1000 mg/Kg daily for 14 days
Method: The compound identified in Example 25 and represented as Run No. 3 in Table III, was also evaluated for chronic toxicity. Six Swiss white mice were injected subcutaneously at a dose of 1000 mg/Kg daily for 14 days. A sample dispersion of 400 mg/4.0 ml was prepared by dispersing the soft enhancer in a powder form in a 2% Tween 80 saline solution. The homogeneous dispersion was obtained by vortexing the material in a conical flask in which a plastic ball was placed. Sample dispersion was prepared alternative day in order to avoid serious contamination. Prior to injection the dispersion was shaken and withdrawn into a sterile graduated 1 cc TB syring (readable to 0.05 ml). Sterile hypodermic needles (25.4 mm) were required for injecting the dispersion. The control mice were injected an equivalent volume of the 2% Tween 80 suspension in saline. The suspension was prepared on an alternative day to avoid serious contamination. […] Two mice injected with the sample and one from the control were sacrificed and dissected for examination. For the control mouse, there was no obvious damage to the tissue and the internal organs. […] The mice were maintained for a period of 39 days during which time one mouse was sacrificed to check for the presence of the yellowish material.

[5] = tested on: Swiss white mice; conditions: mouse, in vivo, sc, 1000 mg/kg

## 1-Methyl-4-imidazolin-2-one-3-propylenedodecanoate [Run No. 5]
[1]; within the first 24 hours
  penetration enhancement of indomethacin versus Azone (FIG. 1): well above that of the standard Azone

## CCCCCCCCCCCCN1CCCCCC1=O [Azone, 1-Dodecylazacycloheptane-2-One, reference compound]
[2]
  LD50: approximately 232 mg/kg
[1]
  Relative Penetration: 100%

## CCCCCCCCCCCCCC(=O)OC(C)n1ccn(CC)c1=O (stereo not drawn) [Run No. 7, 1-ethyl-4-imidazolin-2-one-3-α-ethyltetradecanoate]
[1]
  Relative Penetration: 50%

## CCCCCCCCCCOC(=O)OCn1ccn(C)c1=O [Run No. 9]
[1]
  Relative Penetration: 15%

## CCCCCCCCCCCCCCOC(=O)OCn1ccn(C)c1=O [Run No. 10]
[1]
  Relative Penetration: 10%

## CCCCCCCCCCCC(=O)OCn1ccn(C)c1=O [Run No. 12, 1-Methyl-4-imidazolin-2-one-3-methylenedodecanoate]
[3]
  Relative Penetration: 20%
[1]
  Relative Penetration: 10%

## CCCCCCCCCCCC(=O)OC(C)Cn1ccn(C)c1=O (centres unmarked) [compound 1]
[1]
  Relative Penetration: 120-200%

## CCCCCCCCCCCCCC(=O)OC(C)Cn1ccn(C)c1=O (centres unmarked) [compound 2]
[1]
  Relative Penetration: 70%

## CCCCCCCCCCCCCC(=O)OC(C)n1ccn(C)c1=O (centres unmarked) [compound 3]
[4]
  damage to internal organs (dissection): no obvious damage to the internal organs was seen
  injection site finding (dissection): a substantial amount of yellowish material was found on the injection site
[4]; after 39 days
  yellowish material at injection site at follow-up: The yellowish material disappeared after 39 days
[3]
  Relative Penetration: 50%
[5]
  damage to internal organs and tissue at the injection site (dissection): no obvious damage to the internal organs and tissue at the injection site
[1]
  Relative Penetration: 80-100%

## CCCCCCCCCCCC(=O)OC(C)n1ccn(C)c1=O (centres unmarked) [compound 4]
[3]
  Relative Penetration: 40%
[1]
  Relative Penetration: 60%

## CCCCCCCCCCCC(=O)OCCCn1ccn(C)c1=O [compound 5]
[1]
  Relative Penetration: 100%

## CCCCCCCCCCCC(=O)OCCn1ccn(C)c1=O [compound 6]
[1]
  Relative Penetration: 60%

## CCCCCCCCCCCCOC(=O)OCn1ccn(C)c1=O [compound 8]
[1]
  Relative Penetration: 50%

## CCCCCCCCCC(=O)OCn1ccn(C)c1=O [compound 11]
[1]
  Relative Penetration: 10%

## CCCCCCCCCC(=O)OC(C)Cn1ccn(C)c1=O (centres unmarked) [compound 13]
[1]
  Relative Penetration: 50%
